Holding throughout (format): binding
The target in one assay is SMb20568 (Sinorhizobium meliloti, UniProt Q92TN0). The experiment in a line: fluorescence thermal shift. The settings on record: 10 µM protein, 1000 µM ligand.
For assay [1], the target named is T1, RPA0668 (Rhodopseudomonas palustris, UniProt G3XCQ4). The experiment in a line: X-ray crystal structure […] Å. The settings on record: SeMet protein, 5 mM sodium BEZ in crystallization.
The target in a further assay is Bll5953 (Bradyrhizobium diazoefficiens, UniProt Q89HN7). In words: fluorescence thermal shift. The conditions noted are these: 10 µM protein, 1000 µM ligand.
A further assay addresses RPB1579 (Rhodopseudomonas palustris, UniProt Q2IZS1). The experiment in a line: fluorescence thermal shift. The settings on record: 10 µM protein, 1000 µM ligand.
The next assay deals with RPA4029 (Rhodopseudomonas palustris, UniProt Q6N2M1). The experiment in a line: fluorescence thermal shift. The settings on record: 10 µM protein, 1000 µM ligand.
For assay [2], the target named is T2, RPD1586 (Rhodopseudomonas palustris, UniProt Q13AR6). In words: X-ray crystal structure […] Å. The conditions noted are these: SeMet protein.
The target of assay [3] is T1, RPA0668. In words: X-ray crystal structure […] Å. The settings on record: SeMet protein, 5 mM sodium PHB in crystallization.
In assay [4] the target is T2, RPD1586. The experiment in a line: X-ray crystal structure […] Å. The settings on record: SeMet protein, 5 mM sodium VLA in crystallization.
In assay [5] the target is T1, RPA0668. The experiment in a line: fluorescence thermal shift. The conditions noted are these: 10 µM protein, 1000 µM ligand.

As to `O=C(O)c1cccc(O)c1` [3-hydroxybenzoate], the ΔTm result on SMb20568 was “increased protein stability of SMb20568 with 3-hydroxybenzoate or gallic acid”.

For the compound `O=C(O)c1ccccc1` [BEZ, benzoate], the “X-ray crystal structure 1.84 Å; fluorescence thermal shift” value on RPA0668 [1] was “RPA0668 has been determined in complex with the two most preferred ligands BEZ and PHB”.

As to `O=C(O)c1ccc(O)c(O)c1` [DHB, 3,4-dihydroxybenzoate], the ΔTm entry on Bll5953 was “the preferred ligands (DHB, VLA) are the same for each protein”; at SMb20568, “equivalent thermal stabilization with 4-hydroxybenzoate (PHB) and DHB”; at RPB1579 it was “the preferred ligands (DHB, VLA) are the same for each protein”; on RPA4029 it was “the preferred ligands (DHB, VLA) are the same for each protein”.

For `O=C(O)c1ccc(O)cc1` [PHB, 4-hydroxybenzoate], the “X-ray crystal structure 2.22 Å; fluorescence thermal shift” value on RPD1586 [2] was “RPD1586 protein from the Ic subgroup was crystallized with PHB, DHB, and VLA”. Moreover, the ΔTm result on SMb20568 is “equivalent thermal stabilization with 4-hydroxybenzoate (PHB) and DHB”. Moreover, at RPA0668 [3], the “X-ray crystal structure 1.40 Å; fluorescence thermal shift” value was “RPA0668 has been determined in complex with the two most preferred ligands BEZ and PHB”.

Regarding `COc1cc(C(=O)O)ccc1O` [VLA, 4-hydroxy-3-methoxybenzoate], the ΔTm result at Bll5953 is on record as “the preferred ligands (DHB, VLA) are the same for each protein”; at RPB1579, “the preferred ligands (DHB, VLA) are the same for each protein”; on RPA4029 it was “the preferred ligands (DHB, VLA) are the same for each protein”. Also, on RPD1586 [4], the “X-ray crystal structure 1.86 Å; fluorescence thermal shift” value is “RPD1586 protein from the Ic subgroup was crystallized with PHB, DHB, and VLA”.

Turning to `O=Cc1ccccc1` [benzaldehyde], on RPA0668 [5], the ΔTm entry is “excellent thermal stabilization is observed for aromatic compounds with an aldehyde or carboxyl group”.

`O=C(O)c1cc(O)c(O)c(O)c1` [gallic acid]: the ΔTm entry at SMb20568 is on record as “exhibits a greater ΔTm with gallic acid”.

Source of the values: paper PMC3836681 (Journal of molecular biology, 2012).
